Measurements reported in the C3SDB collision cross section collection.
One block for each compound: values may come before it.

Assays:
[1] = instrument: TW, calibrated with phosphatidylcholines (ESI+) and phosphatidylethanolamines (ESI-)
[2] = instrument: TW, calibrated with phosphatidylcholines (ESI+) and phosphatidylethanolamines (ESI-); remark: listed apart in the source
[3] = instrument: DT, single field, calibrated with Agilent tune mix (Agilent)
[4] = [M+H]+; instrument: DT; stepped-field
[5] = [M+Na]+; instrument: DT; stepped-field
[6] = instrument: TW, calibrated with phosphatidylcholines (ESI+) and phosphatidylethanolamines (ESI-), doubly charged cardiolipins calibrated with poly-DL-…
[7] = [M+H]+; instrument: DT; single field, calibrated with Agilent tune mix (Agilent)

SMILES: CCCCCC/C=C\CCCCCCCCCC(=O)OC(COC(=O)CCCCCCCCCCCCCCC)COP(=O)([O-])OCC(O)COC(=O)C(C)[NH3+] (stereo not given) [AlaPG(34:1)]
collision cross section (N2) ([1]; [M+H]+): 291.7 Å²
collision cross section (N2) ([1]; [M+K]+): 293.6 Å²
collision cross section (N2) ([1]; [M+Na]+): 294.3 Å²

SMILES: CCCCCCCCCCCCCCCCCC(=O)N[C@@H](CO)[C@H](O)CCCCCCCCCCCCCCC [Cer(d18:0/18:0)]
collision cross section (N2) ([2]; [M+H]+): 263.1 Å²

SMILES: CCCCCCCCCCCCCCCCCCCC(=O)N[C@@H](CO)[C@H](O)CCCCCCCCCCCCCCC [Cer(d18:0/20:0)]
collision cross section (N2) ([2]; [M+H]+): 269.1 Å²

SMILES: CCCCCCCCCCCCC=CC[C@@H](O)[C@H](CO)NC(=O)CC=CCCCCCCCCCCCCCCCCCC [Cer(d18:1/22:1)]
collision cross section (N2) ([2]; [M+H]+): 270.2 Å²
collision cross section (N2) ([2]; [M-H]-): 260.2 Å²

SMILES: CCCCCCCCCCCCC=CC[C@@H](O)[C@H](CO)NC(=O)CC=CCCCCCCCCCCCCCCCCCCCCCC [Cer(d18:1/26:1)]
collision cross section (N2) ([2]; [M+H]+): 282.4 Å²

SMILES: CCCCCCCCCCCCCC=CCC(=O)OC[C@H](CO[C@@H]1O[C@H](CO[C@H]2O[C@H](CO)[C@H](O)C(O)C2O)[C@H](O)C(O)C1O)OC(=O)CC=CCCCCCCCCCCCCC (stereo not given in full) [DGDG(16:0/18:2)]
collision cross section (N2) ([1]; [M+CH3COO]-): 312.7 Å²
collision cross section (N2) ([1]; [M+Cl]-): 304.9 Å²
collision cross section (N2) ([1]; [M+NH4]+): 307.5 Å²
collision cross section (N2) ([1]; [M+Na]+): 306.5 Å²
collision cross section (N2) ([1]; [M-H]-): 301.9 Å²

SMILES: CCCCCCCCCCC=CCC=CCC(=O)OC[C@H](CO[C@@H]1O[C@H](CO[C@H]2O[C@H](CO)[C@H](O)C(O)C2O)[C@H](O)C(O)C1O)OC(=O)CC=CCC=CCCCCCCCCCC (stereo not given in full) [DGDG(16:1/18:3)]
collision cross section (N2) ([1]; [M+Cl]-): 303.2 Å²
collision cross section (N2) ([1]; [M+NH4]+): 303.5 Å²
collision cross section (N2) ([1]; [M+Na]+): 301.1 Å²
collision cross section (N2) ([1]; [M-H]-): 301.4 Å²

SMILES: CCCCCCCC=CCC=CCC=CCC(=O)OC[C@H](CO[C@@H]1O[C@H](CO[C@H]2O[C@H](CO)[C@H](O)C(O)C2O)[C@H](O)C(O)C1O)OC(=O)CC=CCC=CCC=CCCCCCCC (stereo not given in full) [DGDG(16:3/18:3)]
collision cross section (N2) ([1]; [M+CH3COO]-): 305.8 Å²
collision cross section (N2) ([1]; [M+Cl]-): 299.9 Å²
collision cross section (N2) ([1]; [M+K]+): 295.2 Å²
collision cross section (N2) ([1]; [M+NH4]+): 296.3 Å²
collision cross section (N2) ([1]; [M+Na]+): 294.9 Å²
collision cross section (N2) ([1]; [M-H]-): 296.1 Å²

SMILES: CCCCCCCCCCCCC=CC[C@@H](O)[C@H](CO[C@@H]1O[C@H](CO)[C@@H](O)C(O)C1O)NC(=O)CC=CCCCCCCCCCCCCCC (stereo not given in full) [GlcCer(d18:1/18:1)]
collision cross section (N2) ([2]; [M+H]+): 281.8 Å²

SMILES: CCCCCCCCCCCCC=CC[C@@H](O)[C@H](CO[C@@H]1O[C@H](CO)[C@@H](O)C(O)C1O)NC(=O)CC=CCCCCCCCCCCCCCCCCCCCC (stereo not given in full) [GlcCer(d18:1/24:1)]
collision cross section (N2) ([2]; [M+H]+): 298.2 Å²
collision cross section (N2) ([2]; [M+Na]+): 297.3 Å²

SMILES: CCCCCCCCCCCCCCCC(=O)OCC(O)COP(=O)([O-])OCC[N+](C)(C)C (stereo not given) [LPC(16:0)]
collision cross section (N2) ([3]; [M+HCOO]-): 235 Å²
collision cross section (N2) ([3]; [M+H]+): 229.8 Å²
collision cross section (N2) ([2]; [M+H]+): 228.5 Å²
collision cross section (N2) [4]: 233.3 Å²

SMILES: CCCCC/C=C\C/C=C\C/C=C\CCCCCCC(=O)OC[C@@H](O)COP(=O)([O-])OCC[N+](C)(C)C [LPC(20:3)]
collision cross section (N2) ([2]; [M+H]+): 239 Å²

SMILES: CC/C=C\C/C=C\C/C=C\C/C=C\CCCCCCC(=O)OC[C@@H](O)COP(=O)([O-])OCC[N+](C)(C)C [LPC(20:4)]
collision cross section (N2) ([2]; [M+H]+): 232.4 Å²

SMILES: CCCCC/C=C\C/C=C\CCCCCCCC(=O)O[C@H](COC(=O)CCCCCCCCCCCCCCCCC)COP(=O)(O)O [PA(36:2)]
collision cross section (N2) ([3]; [M+NH4]+): 274.5 Å²
collision cross section (N2) ([3]; [M+Na]+): 274 Å²
collision cross section (N2) ([3]; [M-H]-): 260.2 Å²
collision cross section (N2) ([2]; [M-H]-): 259.5 Å²

SMILES: CCCCC/C=C\C/C=C\C/C=C\CCCCC(=O)OC[C@H](COP(=O)([O-])OCC[N+](C)(C)C)OC(=O)CCCCCCC/C=C\CCCCCCCC [PC(36:4)]
collision cross section (N2) ([3]; [M+HCOO]-): 288.4 Å²
collision cross section (N2) ([2]; [M+CH3COO]-): 290.8 Å²
collision cross section (N2) ([2]; [M+H]+): 286 Å²

SMILES: CCCCC/C=C\C/C=C\CCCCCCCCCCCC(=O)O[C@H](COC(=O)CCCCCCC/C=C\C/C=C\CCCCC)COP(=O)([O-])OCC[N+](C)(C)C [PC(40:4)]
collision cross section (N2) ([3]; [M+H]+): 300.2 Å²
collision cross section (N2) ([2]; [M+H]+): 296.1 Å²

SMILES: CC/C=C\C/C=C\C/C=C\C/C=C\CCCCC(=O)OC[C@H](COP(=O)([O-])OCC[N+](C)(C)C)OC(=O)CCCCC/C=C\C/C=C\C/C=C\C/C=C\CCCCC [PC(40:8)]
collision cross section (N2) ([2]; [M+H]+): 291.6 Å²

SMILES: CCCCC/C=C\C/C=C\C/C=C\CCCCCCC(=O)O[C@H](COC(=O)CCCCCCC/C=C\C/C=C\CCCCC)COP(=O)(O)OCCN [PE(38:5)]
collision cross section (N2) ([3]; [M+H]+): 280.1 Å²
collision cross section (N2) ([3]; [M-H]-): 271.2 Å²
collision cross section (N2) [5]: 287.2 Å²
collision cross section (N2) ([2]; [M+H]+): 276 Å²
collision cross section (N2) ([2]; [M-H]-): 269.5 Å²

SMILES: CC/C=C\C/C=C\C/C=C\C/C=C\C/C=C\CCCC(=O)OC[C@H](COP(=O)(O)OCCN)OC(=O)CCCCC/C=C\C/C=C\C/C=C\C/C=C\CCCCC [PE(42:9)]
collision cross section (N2) [5]: 295.6 Å²
collision cross section (N2) ([2]; [M+H]+): 288.2 Å²

SMILES: CC/C=C\C/C=C\C/C=C\C/C=C\C/C=C\CCCCCC(=O)O[C@H](COC(=O)CCC/C=C\C/C=C\C/C=C\C/C=C\C/C=C\CC)COP(=O)(O)OCCN [PE(42:10)]
collision cross section (N2) [5]: 291 Å²
collision cross section (N2) ([2]; [M+H]+): 285 Å²

SMILES: CCCC/C=C\CCCCCCCC(=O)O[C@H](CO/C=C\CCCCCCCCCCCCCCCCCC)COP(=O)(O)OCCN [PE(p34:1)]
collision cross section (N2) ([3]; [M+H]+): 273.2 Å²
collision cross section (N2) ([3]; [M+Na]+): 276.9 Å²
collision cross section (N2) ([3]; [M-H]-): 262.2 Å²
collision cross section (N2) ([2]; [M-H]-): 262.1 Å²

SMILES: CCCCCC/C=C\CCCCCCCC(=O)O[C@H](CO/C=C\CCCCCCCCCCCCCCCCCC)COP(=O)(O)OCCN [PE(p36:1)]
collision cross section (N2) ([2]; [M+H]+): 279.7 Å²
collision cross section (N2) ([2]; [M-H]-): 267.3 Å²

Second part, the compound after the results:

collision cross section (N2) ([3]; [M+H]+): 277.1 Å²
collision cross section (N2) ([3]; [M-H]-): 267.6 Å²
collision cross section (N2) ([2]; [M+H]+): 278.1 Å²
collision cross section (N2) ([2]; [M-H]-): 266.5 Å²
SMILES: CCCCC/C=C\C/C=C\CCCCCCCCCC(=O)O[C@H](CO/C=C\CCCCCCCCCCCCCC)COP(=O)(O)OCCN [PE(p36:2)]

collision cross section (N2) ([2]; [M+H]+): 274.2 Å²
SMILES: CC/C=C\C/C=C\C/C=C\C/C=C\C/C=C\CCCC(=O)O[C@H](CO/C=C\CCCCCCCCCCCCCC)COP(=O)(O)OCCN [PE(p36:5)]

collision cross section (N2) ([2]; [M+H]+): 281.4 Å²
collision cross section (N2) ([2]; [M-H]-): 270.9 Å²
SMILES: CCCCC/C=C\C/C=C\C/C=C\CCCCCCC(=O)O[C@H](CO/C=C\CCCCCCCCCCCCCCCC)COP(=O)(O)OCCN [PE(p38:3)]

collision cross section (N2) ([3]; [M+H]+): 281.5 Å²
collision cross section (N2) ([2]; [M+H]+): 280.6 Å²
collision cross section (N2) ([2]; [M-H]-): 270.3 Å²
SMILES: CCCCC/C=C\C/C=C\C/C=C\C/C=C\CCCCCC(=O)O[C@H](CO/C=C\CCCCCCCCCCCCCC)COP(=O)(O)OCCN [PE(p38:4)]

collision cross section (N2) ([6]; [M+Na]+): 281.03 Å²
collision cross section (N2) ([6]; [M-H]-): 270.03 Å²
SMILES: CCCCCCCC/C=C\CCCCCCCC(=O)OC(COC(=O)CCCCCCCCCCCCCCC)COP(=O)(O)OCC(O)CO (stereo not given) [PG(34:1)]

collision cross section (N2) ([6]; [M-H]-): 276.25 Å²
SMILES: CCCCCCCC/C=C\CCCCCCCC(=O)OC(COC(=O)CCCCCCCCCCCCCCCCC)COP(=O)(O)OCC(O)CO (stereo not given) [PG(36:1)]

collision cross section (N2) ([3]; [M+NH4]+): 296.6 Å²
collision cross section (N2) ([3]; [M+Na]+): 292.4 Å²
collision cross section (N2) ([2]; [M+Na]+): 290 Å²
collision cross section (N2) ([2]; [M-H]-): 281.9 Å²
SMILES: CC/C=C\C/C=C\C/C=C\C/C=C\CCCCC(=O)O[C@H](COC(=O)CCCCCCCCCCC/C=C\C/C=C\CCCCC)COP(=O)(O)OC[C@@H](O)CO [PG(40:6)]

collision cross section (N2) ([3]; [M+H]+): 301.6 Å²
collision cross section (N2) ([3]; [M+NH4]+): 302.2 Å²
collision cross section (N2) ([3]; [M+Na]+): 299 Å²
collision cross section (N2) ([3]; [M-H]-): 290.5 Å²
collision cross section (N2) ([2]; [M+Na]+): 297.2 Å²
collision cross section (N2) ([2]; [M-H]-): 289.6 Å²
SMILES: CCCCCCCCCC/C=C\CCCCCCCCCC(=O)O[C@H](COC(=O)CCCCCCCCCCCCC)COP(=O)(O)O[C@H]1C(O)C(O)C(O)[C@@H](O)C1O (stereo not given in full) [PI(36:1)]

collision cross section (N2) ([2]; [M+H-H2O]+): 299.7 Å²
SMILES: CCCCC/C=C\C/C=C\C/C=C\C/C=C\CCCC(=O)O[C@H](COC(=O)CCCCCCC/C=C\CCCCCCCC)COP(=O)(O)O[C@H]1C(O)C(O)C(O)[C@@H](OP(=O)(O)O)C1O (stereo not given in full) [PIP(38:5)]

collision cross section (N2) ([2]; [M+H]+): 281.1 Å²
SMILES: CCCCCCCCCCCCC=CC[C@@H](O)[C@H](COP(=O)([O-])OCC[N+](C)(C)C)NC(=O)CCCCCCCCCCCCCCC [SM(d18:1/16:0)]

collision cross section (N2) ([2]; [M+H]+): 286.6 Å²
collision cross section (N2) [7]: 290.2 Å²
SMILES: CCCCCCCCCCCCC=CC[C@@H](O)[C@H](COP(=O)([O-])OCC[N+](C)(C)C)NC(=O)CCCCCCCCCCCCCCCCC [SM(d18:1/18:0)]

collision cross section (N2) ([2]; [M+H]+): 295 Å²
SMILES: CCCCCCCCCCCCC=CC[C@@H](O)[C@H](COP(=O)([O-])OCC[N+](C)(C)C)NC(=O)CC=CCCCCCCCCCCCCCCCCCC [SM(d18:1/22:1)]
